“Also recorded” adds a separate entry of the source. Where two headings read alike, the source gives them in different places.
Experiments:
[1] = tested on: J-Lat A72 cell line (LTR-GFP); settings: A72 J-Lat cells; for activation of GFP expression / reactivation of the HIV-LTR: single agent
Description: J-Lat (clones A2 and A72) cell lines were cultured as described in Jordan et al., EMBO J. 2003 Apr. 15:22(8):1868-77. Human αCD3/αCD28 beads (Life Technologies) were used at a concentration of 1 bead/cell ratio. JQ1 (Sigma-Aldrich) was used at a concentration of 0.1-10 μM. Ingenol 3,20-dibenzoate (Sigma-Aldrich) was used at concentrations of 5-200 nM, and SAHA (Sigma-Aldrich) was used at concentrations of 110 nM, 330 nM, or 1 μM.
HEK293T cells were obtained from the American Type Culture Collection. J-Lat (clones A2, A72, and 5A8) cell lines were described (Chan et al., 2013; Jordan et al., 2003). HEK293T cells were cultured in DMEM supplemented with 10% FBS, 1% L-glutamine and 1% penicillin-streptomycin (Life Technologies). J-Lat cells were cultured in RPMI supplemented with 10% FBS, 1% L-glutamine and 1% penicillin-streptomycin (Life Technologies). […] TNFα (Sigma-Aldrich) was used at 0.5-10 ng/ml. Human αCD3/αCD28 Dynabeads (Invitrogen) were used at a 1 bead/cell ratio. JQ1 (Cayman Chemical) was used at 0.1-10 μM. Ingenol 3,20-dibenzoate (Santa Cruz Biotechnology) was used at 5-200 nM, and SAHA (Merck) was used at 110 nM, 330 nM, or 1 μM. Phorbol 12-myristate 13-acetate (PMA) (Sigma) was used at 10 nM and ionomycin (Sigma) was used at a concentration of 500 nM. UNC926 (Tocris Bioscience) was used at a concentration of 10 nM-100 μM. AZ505. AZ506, and AZ391 were used at a concentration of 10 nM-10 μM.
ShRNA-expressing lentiviral vectors were purchased from Sigma-Aldrich. The pLKO.1 vector containing a scrambled shRNA was used as control. […] J-Lat 5A8, A72 and A2 cells were spininfected with virus (1 ng of p24 per 10^6 cells) containing shRNAs against KMTs or nontargeting control shRNAs and were selected with puronycin (2 μg/ml: Sigma). After 7 days of selection, cells were treated with the indicated concentration of drugs. The percentage of GFP^+ cells was determined after 18 h using a MACSQuant VYB FACS analyzer (Miltenyi Biotech GmbH). Cell viability was monitored by forward-and-side scatter analysis. Analysis was conducted on 3×10,000 live cells per condition. Data were analyzed using FlowJo 9.5 (Tree Star).

[2] = tested on: A2 J-Lat cells, A72 J-Lat cells, and primary CD4+ T cells; assay: ApoTox-Glo Triplex Assay: viability, cytotoxicity, caspase-3/7; type: cell-based; settings: A2, A72 J-Lat cells and primary CD4+ T cells from 2 blood donors
Description: FIGS. 22A-D provide data showing the viability, cytotoxicity and apoptosis of cells treated with SMYD2 inhibitor X2. ApoTox-Glo™ Triplex Assays (Promega) were performed in AZ391-treated A2 J-Lat cells (A), A72 J-Lat cells (B), and primary CD4^+ T cells from 2 independent blood donors (C) and (D). […] All measurements were repeated at least three times and an average of one experiment of three technical replicates (±SD) is shown.

[3] = cited from earlier work
[4] = tested on: CD4+ T cells from HIV-1-infected individuals; assay: Cell viability (CellTiter-Blue, Zombie Violet) of ex vivo treated CD4+ T cells; type: cell-based, human; settings: at the indicated concentrations (up to 500 nM)
Description: FIGS. 15 A-G depict the structural formulae for AZ505, AZ506, and AZ391, and the reactivation of latent HIV-1 with SMYD2 inhibitor X2 (AZ391) in CD4^+ T cells from HIV-1 infected individuals. (A) Structures of each compound are shown. (B) Intracellular HIV-1 mRNA levels in CD4^+ T cells, obtained from an infected individual (#1036) and treated ex vivo with AZ391, JQ1 or a combination of both, in indicated concentrations, presented as fold induction relative to DMSO control. Activation with αCD3/αCD28-Dynabeads was performed as control. (C) Flow cytometry of T-cell activation markers CD69 and CD25 in the same experiment. For each treatment group, CD69^+ (left) and CD25^+ (right). Shown as percentage of positive cells relative to αCD3/αCD28-treated cells (D) Cell viability as measured by CellTiter-Blue® Cell Viability assay (Promega) and Zombie Violet Fixable Viability kit (BioLegend) and presented as percentage of DMSO control treated cells. Data points indicate average of three technical replicates of donor #1036. (E-G) Same experiments as in b-d but performed with CD4^+ T cells obtained from three additional individuals (2013, 2185, 2511) with a single concentration of AZ391 (500 nM). In f and g, average of the three biological replicates (±SD) is show. For (F), for each treatment group, CD69^+ (left) and CD25^+ (right).

[5] = tested on: latent HIV-1 in human lymphocyte aggregate cultures (HLAC) from tonsils; assay: Ex vivo infected tonsil HLAC latency model, HIV-luciferase reporter virus; type: cell-based; settings: in combination with JQ1
Description: HLAC cells were isolated by Ficoll-Histopaque density gradient centrifugation of sheared tonsils from HIV-seronegative donors (Vanderbilt University Medical Center, Nashville, Tenn.). Isolated HLAC cells were counted, collected as pellets by centrifugation at 1500 rpm for 5 min at room temperature, and re-suspended in the appropriate volume of concentrated viral NL4.3-Luc supernatant. Typically, 50-100 ng of p24 Gag per […] HLAC were used. Spinoculations were performed in 96-well V-bottom plates in volumes of 200 μl or less. Cells and virus were centrifuged at 2000 rpm for 1.5-2 h at room temperature. After spinoculation, cells were pooled and cultured at 1×10^6 cells/ml in RPMI 1640 containing 10% FBS and supplemented with 5 μM Saquinavir (Sigma-Aldrich) for 3 days to prevent any residual spreading infection.
For reactivation of latent HIV-1 provirus, cells were counted and collected as pellets by centrifugation at 1500 rpm for 10 min. […] After 15 min of lysis, the luciferase activity in cell extracts was quantified with a Perkin Elmer EnSpire 2300 Multimode plate reader after mixing 20 μl of lysate with 100 μl of substrate (Luciferase Assay System-Promega). Relative light units (RLU) were normalized to protein content determined by Bradford assay (BioRad). Cell viability was measured with CellTiter-Blue Cell Viability Assay (Promega).

In the case of `N#Cc1cc(C(=O)NCCCN2CCCC2)cc(-c2ccccc2N2CCN(CCc3c[nH]c4ccccc34)CC2)c1` [AZ391], the “reactivation of HIV-LTR, combination effect” value (from here on “reactivation of HIV-LTR”) ([1]; co-treatment with JQ1) is reported as “more than additive effects”, the “reactivation of HIV-LTR” value ([1]; co-treatment with SAHA) is reported as “less” and the “reactivation of HIV-LTR” value ([1]; co-treatment with ingenol 3,20-dibenzoate) is reported as “practically no combination effect”. For the same molecule, the “GFP+ cells” value ([1]; high concentrations (5 and 10 μM)) was “up to 30%”, the “activation of GFP expression / reactivation of the HIV-LTR” value [1] was “activated GFP expression at high concentrations” and the “activation of GFP expression / reactivation of the HIV-LTR” value ([1]; listed as X2) was “the same effect was observed in A72 cells”. For the same molecule, the “viability, cytotoxicity and caspase-3/7 activity” value [2] was “reduced cell viability and increased cytotoxicity and caspase-3/7 activity at concentrations above 5 μM; also recorded: did not reduce viability nor increase cytotoxicity and caspase-3/7 activity at concentrations lower than 5 μM”, the cell permeability [3] was “cell-permeable” and the cell viability [4] was “no impact on cell viability”. The “reactivation of latent HIV-1 (luciferase)” value [5] was “Positive effects” and the “reactivation of latent HIV-1 (luciferase)” value ([5]; listed as X2) was “reactivates latent HIV-1”.

From US11807852B2, “Compositions and methods for reactivating latent immunodeficiency virus” (The J. David Gladstone Institutes, a testamentary trust …, priority 2014, dated 2023)
